Experimental data from patent publication US6716829B2, “Aldosterone antagonist and cyclooxygenase-2 inhibitor combination therapy to prevent or treat inflammation-related cardiovascular disorders” (Pharmacia Corporation, priority 2000, dated 2004).
Values joined by “and” are separate entries in the source; they are usually repeats but may differ in a detail not shown here. Equal entries are not always repeated.

Columns and labels:
[1] = test system: angiotensin II infused rats; test: Assay A, angiotensin II infusion model: systolic blood pressure by tail-cuff; format: in vivo, Male Wistar rats; settings: angiotensin II 25 ng/min sc, 1% NaCl; eplerenone 100 mpk; aldosterone in adrenalectomized rats; 4 weeks
Method: Human cardiovascular disorders are complex conditions, often initiated by vascular hypertension or a myocardial infarction (MI). In order to determine the probable effectiveness of a therapy for cardiovascular disorders, it is important to determine the potency of components in several assays. Accordingly, in Assay “A”, the efficacy of the aldosterone antagonist epeplerenone (epoxymexrenone) was determined in a hypertensive rat model with vascular inflammation, using angiotensin II infusion. In Assay “B” a study is described evaluating the efficacy of the aldosterone antagonist epeplerenone (epoxymexrenone) in a rat model using aldosterone infusion to produce hypertension with vascular inflammation. In Assay “C” a further study is described evaluating the efficacy of the aldosterone antagonist epeplerenone (epoxymexrenone) in a rat model using aldosterone infusion to produce hypertension with vascular inflammation.
Assay A: In Vivo Angiotensin II Infusion Model
Male Wistar rats (n=50, 10/group; BW=200 g)
SBP measured by tail-cuff every week

Collagen I = test: Assay C: Collagen I mRNA by TaqMan RT-PCR; format: in vivo, Male Sprague-Dawley rats; settings: for Collagen type-I message: at 30 days, compared to vehicle + salt controls; for Collagen-I (AU): collagen type I mRNA relative to cyclophilin, eplerenone dose 100 mg/kg/day
Method: The procedure of Assay B was expanded upon in a further study. […] Myocardial tissue from animals in each treatment group was examined after 7, 14, or 30 days of treatment.
Potassium chloride supplementation was added to the saline solution in order to prevent the potential hypokalemia associated with aldosterone excess.
At the time of the surgery, an Alzet 2002 osmotic minipump (Alza Corp., Palo Alto, Calif.) containing either vehicle (9% ethanol/87% propylene glycol/4% dH2O) or 1.0 mg/mL d-aldosterone (Sigma Chemical, St. Louis, Mo.) was inserted subcutaneously at the nape of the neck. Aldosterone was administered at a dose of 0.75 µg/hour. […] Animals were sacrificed from each group (n=8-13) after 7, 14, or 30 days of treatment.
The fluorogenic 5′-nuclease assay (TaqMan PCR) using Applied Biosystems' 7700 Sequence Detection System (Applied Biosystems, Foster City, Calif.) allowed for real time detection/quantitation of a specific gene by monitoring the increase in fluorescence of a gene-specific, dye-labeled oligonucleotide probe. Probes for target and reference genes were labeled at the 5′-end with a 6-carboxyfluorescein (6FAM) reporter dye and at the 3′-end with a 6-carboxy-N,N,N′,N′-tetramethylrhodamine (TAMRA) quencher dye. When the probe was annealed to the target gene, fluorescence of 6FAM was prevented by the close proximity of TAMRA. The exonuclease activity of Taq polymerase released the dyes from the oligonucleotide probe by displacing the probe from the target sequence resulting in fluorescence excitation in direct proportion to the amount of target message present. Data analysis was performed using the Sequence Detection System software from Applied Biosystems.
Primers and probes were designed using Oligo Primer Analysis Software, Version 5.0 (National Biosciences Inc. (NBI)-Wojciech Rychlik, Cascade, Colo.). Primers were synthesized by Life Technologies (Grand Island, N.Y.) and probes were synthesized by Applied Biosystems. Primer/probe sets were designed from known sequences of rat genes to be analyzed. All target gene values were normalized to a reference gene, constitutively expressed cyclophilin. Primer/probe sets sequences can be found in Table 8
RNA was extracted from frozen (−70° C.) left ventricle (LV) tissue (approximately 10-20 mg) using 1.5 mL RNA-STAT 60 according to manufacturer's instructions (Leedo Medical Laboratories, Inc., Houston, Tex.). Briefly, tissues were homogenized using a tissue homogenizer equipped with a 5 mm probe (Ultra-Turrax T8 Homogenizer, IKA Works, Inc. Wilmington, N.C.). Following homogenization, an equal volume of molecular grade chloroform (Sigma Chemical Co., St. Louis, Mo.) was incubated with periodic mixing for 10 min at room temperature. Samples were centrifuged at 12,000 g for 10 min and RNA was precipitated from the top layer by adding an equal volume of molecular grade isopropanol (Sigma Chemical Co.) followed by an overnight incubation at −80° C. RNA was pelleted by centrifugation at 12,000 g, washed with 75% ethanol, and solubilized in nuclease-free water (Promega, Madison, Wis.).
Double-stranded cDNA was synthesized by adding 400 ng RNA (4 uL) to a final volume of 20 uL containing 15% nuclease-free water (Promega, Madison, Wis.), 1×RT Buffer (Life Technologies, Grand Island, N.Y.), 10 mM DTT (Life Technologies), 0.5 mM each of dATP, dTTP, dGTP, dCTP (PE Biosystems, Foster City, Calif.), 2.5 μM Oligo d(T)15 (Oligo Therapeutics, Inc., Wilsonville, Oreg.), 40 units RNAsin (Promega), and 200 units SuperScript II Reverse Transcriptase (Life Technologies). The reactions were performed in thin-walled reaction tubes with caps (Applied Biosystems) to ensure accurate reaction temperatures.

[2] = mean ± SEM after 7 days of treatment
[3] = mean ± SEM after 14 days of treatment
[4] = mean ± SEM after 30 days of treatment
[5] = group mean, data used for Table 15 (14 days of treatment)
[6] = group mean, data used for Table 16 (30 days of treatment)

Row | Structure (SMILES) | Systolic Blood Pressure [1] | Collagen type-I message (Collagen I) | Collagen-I (AU) (Collagen I; [2]) | Collagen-I (AU) (Collagen I; [3]) | Collagen-I (AU) (Collagen I; [4]) | Collagen-I mRNA (AU) (Collagen I; [5]) | Collagen-I mRNA (AU) (Collagen I; [6]) | Collagen-I mRNA (AU) (Collagen I; individual rats, data used for Table 15 (14 days of treatment), incl. rat marked * excluded from statistics, listed as Aldosterone + salt) | Collagen-I mRNA (AU) (Collagen I; individual rats, data used for Table 16 (30 days of treatment), incl. rat marked * excluded from statistics, listed as Aldosterone + salt) | Collagen-I mRNA (AU) (Collagen I; individual rats, data used for Table 15 (14 days of treatment), incl. rat marked * excluded from statistics, listed as Eplerenone + aldosterone + salt) | Collagen-I mRNA (AU) (Collagen I; individual rats, data used for Table 16 (30 days of treatment), incl. rat marked * excluded from statistics, listed as Eplerenone + aldosterone + salt)
1 | C[C@]12CCC(=O)C=C1CC[C@@H]1[C@@H]2[C@@H](O)C[C@]2(C=O)[C@@H](C(=O)CO)CC[C@@H]12 [Aldosterone] | increased blood pressure | modest increase | 1.36 ± 0.14 | 1.33 ± 0.24 | 2.29 ± 0.47 | 1.33 | 2.29 | 1.15 AU and 2.31 AU and 0.25 AU and 1.89 AU and 2.03 AU and 1.00 AU and 1.20 AU and 1.70 AU and 0.43 AU and 2.69 AU | 2.20 AU and 2.02 AU (2×) and 5.88 AU and 1.05 AU and 1.32 AU and 1.98 AU and 1.63 AU and 2.54 AU |  | 
2 | COC(=O)[C@@H]1CC2=CC(=O)CC[C@]2(C)[C@@]23O[C@@H]2C[C@@]2(C)[C@@H](CC[C@@]24CCC(=O)O4)[C@H]13 [Eplerenone] | Neither eplerenone nor adrenalectomy reduced blood pressure | modest increase | 0.85 ± 0.15 | 1.39 ± 0.21 | 2.53 ± 0.20 | 1.39 | 2.53 |  |  | 0.86 AU (2×) and 0.90 AU and 1.65 AU and 1.14 AU and 1.44 AU and 0.50 AU and 1.24 AU and 1.69 AU and 2.03 AU and 3.02 AU | 1.89 AU and 1.54 AU and 2.65 AU (2×) and 1.97 AU and 2.98 AU and 2.90 AU and 2.88 AU and 3.35 AU and 2.01 AU
